Assay results as given in ChEMBL document CHEMBL1201862, “PubChem BioAssay data set” (2004).
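Exposure lasted 48 hours, with cells grown in 96-well plates and compounds tested at five concentrations. Abbreviation: GI50, concentration required for 50% inhibition of growth.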 Calls of active or inactive are those of the source. Cut-off read from the data, not from the text of the source: active = GI50 up to about 1.1 µM and inactive = higher.

Columns and labels:
Test in all cases: NCI tumour cell line growth inhibition, 48 h
COLO 205 = tested on: COLO 205
OVCAR-3 = tested on: OVCAR-3
HOP-62 = tested on: HOP-62
K562 = tested on: K562
HOP-92 = tested on: HOP-92
OVCAR-4 = tested on: OVCAR-4
ACHN = tested on: ACHN
NCI-H522 = tested on: NCI-H522
SF-268 = tested on: SF-268
UO-31 = tested on: UO-31
IGROV-1 = tested on: IGROV-1
786-0 = tested on: 786-0
SNB-19 = tested on: SNB-19
UACC-62 = tested on: UACC-62
HCT-116 = tested on: HCT-116
SNB-78 = tested on: SNB-78
KM12 = tested on: KM12
SNB-75 = tested on: SNB-75

| SMILES | GI50 (COLO 205) | GI50 (OVCAR-3) | GI50 (HOP-62) | GI50 (K562) | GI50 (HOP-92) | GI50 (OVCAR-4) | GI50 (ACHN) | GI50 (NCI-H522) | GI50 (SF-268) | GI50 (UO-31) | GI50 (IGROV-1) | GI50 (786-0) | GI50 (SNB-19) | GI50 (UACC-62) | GI50 (HCT-116) | GI50 (SNB-78) | GI50 (KM12) | GI50 (SNB-75) |
| --- | --- | --- | --- | --- | --- | --- | --- | --- | --- | --- | --- | --- | --- | --- | --- | --- | --- | --- |
| COC(=O)[C@H]1C2CC[C@@H]3C45C[C@@H](c6ccoc6)O[C@@H]4O[C@@H](O2)C31CCC5C (stereo partly specified) | > 100 µM (inactive) | > 100 µM (inactive) | > 100 µM (inactive) | 32.1 µM (inactive) | 44.6 µM (inactive) | > 100 µM (inactive) | > 100 µM (inactive) | 91.6 µM (inactive) | > 100 µM (inactive) | 68.5 µM (inactive) | > 100 µM (inactive) | 91.2 µM (inactive) | > 100 µM (inactive) | > 100 µM (inactive) | > 100 µM (inactive) | 25.7 µM (inactive) | > 100 µM (inactive) |  |
| C[C@]12CCc3nonc3C1CC[C@@H]1C2CC[C@@]2(C)C1CC[C@@H]2O (stereo partly specified) | > 100 µM (inactive) | > 100 µM (inactive) | > 100 µM (inactive) | > 100 µM (inactive) | 94.4 µM (inactive) | > 100 µM (inactive) | > 100 µM (inactive) | > 100 µM (inactive) | > 100 µM (inactive) | > 100 µM (inactive) | > 100 µM (inactive) | > 100 µM (inactive) | > 100 µM (inactive) | > 100 µM (inactive) |  | > 100 µM (inactive) | > 100 µM (inactive) | 86.7 µM (inactive) |
| CC(=O)OC1C(=O)C(O)C(C)OC1O[C@@H]1C[C@@]2(C)[C@@H]3CC=C4[C@@H](C[C@H](O)C(=O)C4(C)C)[C@]3(C)C(=O)C[C@]2(C)[C@H]1[C@@](C)(O)C(=O)/C=C/C(C)(C)O (stereo partly specified) | 0.885 µM (active) | 1.7 µM (inactive) | 2.96 µM (inactive) | 3.35 µM (inactive) | 1.28 µM (inactive) | 1.02 µM (active) | 2.74 µM (inactive) | 0.975 µM (active) | 0.843 µM (active) | 3.18 µM (inactive) | 2.6 µM (inactive) | 1.53 µM (inactive) | 1.62 µM (inactive) | 3.15 µM (inactive) | 2.2 µM (inactive) | 0.916 µM (active) | > 7.53 µM (inactive) | 0.71 µM (active) |
| CN(/N=C/c1ccnc2ccccc12)c1c([N+](=O)[O-])cc([N+](=O)[O-])cc1[N+](=O)[O-] | > 100 µM (inactive) | 41.6 µM (inactive) | 88.3 µM (inactive) | 30.7 µM (inactive) | 28.1 µM (inactive) | 53.7 µM (inactive) | 72.6 µM (inactive) | 27.6 µM (inactive) | 61.2 µM (inactive) | 26.7 µM (inactive) | > 100 µM (inactive) | > 100 µM (inactive) | > 100 µM (inactive) | > 100 µM (inactive) |  | 67.3 µM (inactive) | > 100 µM (inactive) | > 100 µM (inactive) |
| CN/N=C(/CC(=O)c1sc(NNC(C)=O)nc1C)C(=O)Nc1ccc(OC)cc1OC | > 100 µM (inactive) | > 100 µM (inactive) | > 100 µM (inactive) | > 100 µM (inactive) | > 100 µM (inactive) | > 100 µM (inactive) | > 100 µM (inactive) | > 100 µM (inactive) | > 100 µM (inactive) | > 100 µM (inactive) | > 100 µM (inactive) | > 100 µM (inactive) | > 100 µM (inactive) | > 100 µM (inactive) | > 100 µM (inactive) | > 100 µM (inactive) | > 100 µM (inactive) |  |
| CC(C)C(NCc1c2ccccc2[n+]([O-])c2ccccc12)C(=O)O (stereo unspecified) | > 100 µM (inactive) | 93.1 µM (inactive) | > 100 µM (inactive) | 32.1 µM (inactive) | 1.8 µM (inactive) | 41.1 µM (inactive) | 42.3 µM (inactive) | 34.5 µM (inactive) | 32.2 µM (inactive) | 26.7 µM (inactive) | 89.1 µM (inactive) | 54.7 µM (inactive) | 53.3 µM (inactive) | 56.6 µM (inactive) | 25.3 µM (inactive) | 68.2 µM (inactive) | 52.6 µM (inactive) | 20.9 µM (inactive) |
| C=CCCCCCCCC(O)C1C[C@H](O)C(CCCCC)O1 (stereo partly specified) | 18.5 µM (inactive) | 17.5 µM (inactive) |  | 20.7 µM (inactive) | 15.7 µM (inactive) |  | 16.9 µM (inactive) | 17.1 µM (inactive) |  | 17.8 µM (inactive) | 20.2 µM (inactive) | 17.9 µM (inactive) |  | 15 µM (inactive) | 17.6 µM (inactive) | 20 µM (inactive) | 19.5 µM (inactive) | 15.2 µM (inactive) |
| CCCCCN(CCCCC)C(=O)[C@H](CCC(=O)OCc1ccccc1)NC(=O)c1cc2ccccc2[nH]1 | > 100 µM (inactive) | > 100 µM (inactive) | > 100 µM (inactive) | > 100 µM (inactive) | > 100 µM (inactive) | > 100 µM (inactive) | > 100 µM (inactive) | > 100 µM (inactive) | > 100 µM (inactive) | > 100 µM (inactive) | > 100 µM (inactive) | > 100 µM (inactive) | > 100 µM (inactive) | > 100 µM (inactive) | > 100 µM (inactive) | > 100 µM (inactive) | > 100 µM (inactive) | > 100 µM (inactive) |
